Test [1] in a line: ABTS radical cation scavenging (decolorization) test. The settings on record: 734 nm, 30 min. The format is biochemical. As to the method: (§1) The in vitro antioxidant ability of the compounds synthesized in this work was evaluated using three different assays, including (i) the ABTS radical cation reduction-decolorization test, which uses the technique of Khan et al. consisting of the reduction of the cation radical by an antioxidant through the discoloration measured by absorption at the wavelength of 734 nm; (ii) interaction with the stable free radical DPPH, based on Bassene’s method, in which the scavenging of DPPH radicals is carried out by a colorimetric method consisting of the reduction of the DPPH radical, determined by its absorption at a wavelength of 517 nm; and (iii) the FRAP test according to the protocol of Path Canada, based on the ability of a substance to reduce Fe^3+ ions to Fe^2+ ions, which, in the presence of 1,10-phenanthroline, form a red-orange complex whose optical density can be measured at 505 nm.
The modified technique by Khan et al. was used to scavenge ABTS^+• cation radicals through a discoloration test. In this test, potassium permanganate (KMnO4) or potassium persulphate (K2S2O8) reacts with ABTS to generate a blue-green ABTS^+• radical. Antioxidants reduce this radical, leading to a measurable colour change at 734 nm, proportional to the antioxidant concentration. The antioxidant capacity is assessed by comparing the intensity reduction of ABTS colour with that of a reference antioxidant, gallic acid. Stock and dilute solutions of synthetic compounds were prepared as detailed in §3.2.5.1. Diluted concentrations were (50, 25, 12.5, 6.25, 3.125, 1.5625 and 0.78125)/Mi in mM. The ABTS solution was obtained by mixing ABTS with K2S2O8, producing an intense blue colour. The ABTS^+• radical was generated by combining equal volumes of a 4.9 mM K2S2O8 solution and a 7 mM ABTS stock solution, stored in the dark at room temperature for 15 h before use. The 7 mM ABTS stock was then diluted 20 times with distilled water. A total of 25 µl of each dilution was added to wells along with 75 µl of 0.175 mM ABTS+ solution. After 30 min of incubation in the dark at room temperature, optical densities were measured at 734 nm. Negative controls contained the ABTS reagent without synthesized compounds, while positive controls used gallic acid at the same final concentrations as the compounds. Compounds were also tested alone to assess fluorescence. The reduction of ABTS results in a blue discoloration, with lower absorbance indicating higher antioxidant activity.
(§2) The percentages of scavenging or 50% reduction were calculated using gallic acid as a standard for 100% reduction. The concentration of radical scavengers needed to neutralize 50% of free radicals, referred to as SC50, was determined using GraphPad Prism 8.0.1 software (244).

The nature of test [2]: DPPH radical scavenging test. The format is biochemical. The note with it: 517 nm, 30 min. As to the method: as §1
The DPPH radical trapping protocol is based on Bassene’s method, modified for colorimetric analysis. DPPH is a stable purple organic nitrogen radical that absorbs light at 517 nm. When an anti-free radical agent is present, DPPH is reduced to a stable yellow compound, indicated by a loss of colour between 470 and 517 nm. A 0.02% DPPH solution was made with ethanol and stored in a sealed jar in the dark. Stock solutions of the synthesized compounds were prepared by dissolving 100 mg of each in 1 ml of DMSO, and the final concentration of DMSO concentration in the first well was 0.5%. These stocks were then diluted to achieve concentrations (500, 250, 125, 62.5, 31.25, 15.625 and 7.8125)/Mi in mM (Mi: molecular weight of each synthetic compound). Each dilution (25 µl) was put to the wells and 75 µl of the DPPH solution (0.02%) were added. Optical densities were measured at 517 nm after 30 min of incubation in the dark. The negative control used DPPH alone, while the positive control used gallic acid treated with solutions of the synthesized compounds at final concentrations (50, 25, 12.5, 6.25, 3.125, 1.5625 and 0.78125)/Mi in mM. Synthesized compounds were also tested alone to assess fluorescence.
Assays were performed in duplicate, and results were averaged. Percentage inhibition (PI), reflecting the antioxidant activity related to the DPPH˙ radical scavenging effect, was calculated using the following formula:
(PI)=Acontrol−Atest/Acontrol×100,
where Acontrol = absorbance of the control sample and Atest = absorbance of the tested sample.
as §2

Setting [3] is: first replicate, read-out: ABTS SC50(1).
The mark [4] stands for this setting: mean of duplicate, read-out: ABTS mean SC50.
The mark [5] stands for this setting: second replicate, read-out: ABTS SC50(2).
[6] abbreviates: first replicate, read-out: DPPH SC50(1).
[7] abbreviates: mean of duplicate, read-out: DPPH mean SC50.
The mark [8] stands for this setting: second replicate, read-out: DPPH SC50(2).

Each structure is given as a SMILES string.

This note sets out measurements from article PMC12074795, “Synthesis and biological evaluation of esterified anti-inflammatory drugs with ethylene glycol linkers: cytotoxicity, anti-inflammatory and antioxidant properties” (Royal Society Open Science, 2025).

Take `CC(C)Cc1ccc(C(C)C(=O)O)cc1` (centres unmarked) [Compound 1, ibuprofen, reference compound]: the EC50 in test [1] (setting [3]) was found to be 0.21 mM; in test [1] (setting [4]), 0.2 mM; in test [1] (setting [5]) it was 0.2 mM; in test [2] (setting [6]), 9.81 mM; in test [2] (setting [7]), 10 mM; in test [2] (setting [8]), 10.2 mM.

For `CC(C)Cc1ccc(C(=O)OCCOC(=O)C(C)c2ccc(CC(C)C)cc2)cc1` (centres unmarked) [Compound 2, 2-((2-(4-isobutylphenyl)propanoyl)oxy)ethyl 4-isobutylbenzoate], the EC50 was determined as 1.67 mM in test [1] (setting [3]); 1.7 mM in test [1] (setting [4]); 1.73 mM in test [1] (setting [5]); 5.05 mM in test [2] (setting [6]); 4.92 mM in test [2] (setting [7]); 4.78 mM in test [2] (setting [8]).

On to `CC(C)Cc1ccc(C(C)C(=O)OCCO)cc1` (centres unmarked) [Compound 3, 2-hydroxyethyl 2-(4-isobutylphenyl)propanoate], for which the EC50 came to 3.7 mM in test [1] (setting [3]); 3.9 mM in test [1] (setting [4]); 4.11 mM in test [1] (setting [5]); 10.5 mM in test [2] (setting [6]); 10.4 mM in test [2] (setting [7]); 10.4 mM in test [2] (setting [8]).

As to `CCCCCCCCCCCC(=O)OCCOC(=O)C(C)c1ccc(CC(C)C)cc1` (centres unmarked) [Compound 5a, 2-((2-(4-isobutylphenyl)propanoyl)oxy)ethyl dodecanoate], the EC50 in test [1] (setting [3]) was determined as 2.77 mM; in test [1] (setting [4]) it was 2.79 mM; in test [1] (setting [5]), 2.81 mM; in test [2] (setting [6]), 3.5 mM; in test [2] (setting [7]) it was 3.52 mM; in test [2] (setting [8]) it was 3.53 mM.

For the molecule `O=C(OCCO)c1ccccc1O` [Compound 7, 2-hydroxyethyl 2-hydroxybenzoate], the EC50 in test [1] (setting [3]) was 0.21 mM; in test [1] (setting [4]), 0.21 mM; in test [1] (setting [5]) it was 0.21 mM; in test [2] (setting [6]), 12.2 mM; in test [2] (setting [7]), 12.1 mM; in test [2] (setting [8]), 12.1 mM.

In the case of `O=C(O)/C=C/c1ccccc1` [Compound 11, cinnamic acid, reference compound], the EC50 in test [1] (setting [3]) worked out at 5.83 mM; in test [1] (setting [4]), 5.91 mM; in test [1] (setting [5]), 5.98 mM; in test [2] (setting [6]), 11.1 mM; in test [2] (setting [7]) it was 11 mM; in test [2] (setting [8]), 10.9 mM.

Regarding `O=C(/C=C/c1ccccc1)OCCOC(=O)c1ccccc1O` [Compound 12, (E)-2-(cinnamoyloxy)ethyl 2-hydroxybenzoate], the EC50 in test [1] (setting [3]) turned out to be 3.36 mM; in test [1] (setting [4]), 3.47 mM; in test [1] (setting [5]) it was 3.6 mM; in test [2] (setting [6]) it was 8.63 mM; in test [2] (setting [7]), 8.68 mM; in test [2] (setting [8]) it was 8.73 mM.

With `O=C(OCCOC(=O)c1ccccc1O)c1ccccc1O` [Compound 13, Ethane-1,2-diyl bis(2-hydroxybenzoate)], the EC50 turned out to be 0.21 mM in test [1] (setting [3]); 0.2 mM in test [1] (setting [4]); 0.2 mM in test [1] (setting [5]); 6.61 mM in test [2] (setting [6]); 6.46 mM in test [2] (setting [8]).

On to `CC(C)Cc1ccc(C(C)C(=O)OCCOC(=O)C=Cc2ccccc2)cc1` (centres unmarked) [Compound 14, 2-((2-(4-isobutylphenyl)propanoyl)oxy)ethyl cinnamate], for which the EC50 in test [1] (setting [3]) came out at 0.18 mM; in test [1] (setting [4]), 0.18 mM; in test [1] (setting [5]), 0.18 mM; in test [2] (setting [6]), 6.64 mM; in test [2] (setting [7]), 6.13 mM; in test [2] (setting [8]), 6.68 mM.

With `CCCCCCCCCCCC(=O)OCCOC(=O)c1ccccc1O` [DEW4a], the EC50 is 3.24 mM in test [1] (setting [3]); 3.25 mM in test [1] (setting [4]); 3.3 mM in test [1] (setting [5]); 5.82 mM in test [2] (setting [6]); 5.79 mM in test [2] (setting [7]); 5.77 mM in test [2] (setting [8]).
